Measured values from patent US20110034413A1, “NOVEL QUERCETIN DERIVATIVES AS ANTI-CANCER AGENTS” (priority 2007, published 2011).
Converted amounts (≈) assume the structure as drawn.

Legend:
[1] = system: PA-1 (Ovary) cancer cells; experiment: Colorimetric MTT conversion assay, PA-1; type: cell-based; conditions: Homo sapiens, 72 h exposure, 10 μM to 100 μM
Protocol: (§1) The anticancer potential of the novel Quercetin derivatives of formula (I) were evaluated and subsequently compared with Quercetin (II). The anticancer potential was determined by the colorimetric MTT conversion assay of Mossman. Human cancer cells representing ovary (PA-1; SK-OV-3); prostate (DU 145); lung (A-549) and normal fibroblast (NIH-3T3) were separately seeded at density of 1000 cells/well into 96 well plates in 180 μl of culture medium with 10% fetal calf serum. After 24 h, cells were incubated with different concentrations of the novel Quercetin derivatives ranging from 10 μM to 100 μM with relevant controls at 37° C. in a CO2 incubator in triplicate wells. The exposure medium (Quercetin derivatives in culture medium) of all the cells was refreshed after every 24 h. Cells were incubated with the derivatives for total of 72 h. The assay was terminated by the addition of 20 μl, of MTT solution (5 mg/ml) in each well and percentage cytotoxicity was calculated as given below. The IC50 values were determined by nonlinear regression using Prism software v 4.01.
(§2) Percentage Cytotoxicity=100×[1−(X/R1)], where X=absorbance of treated sample at 540 nm

[2] = system: SKOV3 (Ovary) cancer cells; experiment: Colorimetric MTT conversion assay, SKOV3; type: cell-based; conditions: Homo sapiens, SK-OV-3, 72 h exposure, 10 μM to 100 μM
Protocol: as §1, §2

[3] = system: DU 145 (Prostate) cancer cells; experiment: Colorimetric MTT conversion assay, DU 145; type: cell-based; conditions: Homo sapiens, 72 h exposure, 10 μM to 100 μM
Protocol: as §1, §2

[4] = Aqueous solubility by UV spectrophotometry (500 μM solutions in aqueous media from DMSO stock); type: physicochemical; conditions: for solubility: kinetic from dmso stock, aqueous media, 500 μM solution prepared from DMSO stock, UV OD at λmax; for Aqueous solubility compared with Quercetin (II) / QC-12 (IV), in words: comparison drawn from Table-II
Protocol: The aqueous solubility of the novel Quercetin derivatives of formula (I) were determined and subsequently compared with QC 12. 500 μM solutions of the various novel Quercetin derivatives were prepared in aqueous media from DMSO stock solution. The samples were scanned in UV spectrophotometer at its λmax to obtain optical density (O.D) of the compound. Concentration against the OD value was obtained by calibration curve constructed by plotting the Optical density Vs concentration of calibration standards of the compounds.
Calibration standards were prepared by diluting the stock solution of the compound further in suitable solvents ensuring the overall compound solubility. Calibration standard of concentration 500 μM, 200 μM, 50 μM, 12.5 μM and 3.13 μM were prepared. These calibration standards were scanned in UV spectrophotometer at its highest wavelength (λmax) to obtain the optical density values (OD). A standard curve was constructed by plotting the Optical density Vs concentration.

[5] = system: NIH 3T3 (Normal) fibroblast; experiment: Colorimetric MTT conversion assay, NIH 3T3; type: cell-based; conditions: Mus musculus, NIH3T3, 72 h exposure, 10 μM to 100 μM
Protocol: as §1, §2

[6] = Plasma stability (half-life in plasma, 100 μM, 37° C., liquid chromatography); type: in vitro ADME; conditions: plasma spiked at 100 μM, incubated at 37° C.
Protocol: The Plasma stability of the novel Quercetin derivatives of formula (I) were evaluated by determining their half-life in plasma and subsequently compared with QC-12 (IV). Plasma samples of concentration 100 μM spiked with the compounds were incubated at 37° C. and at specified time point the samples were quenched using chilled acetonitrile. Samples were then analyzed using liquid chromatography to determine the concentration at respective time point. Half-life was calculated from the logarithmic curve drawn between time and concentration.

[7] = system: different Cancer Cell Lines; experiment: Colorimetric MTT conversion assay, overall comparison over the cell line panel; type: cell-based, Human; conditions: comparison drawn from Table-IV
Protocol: as §1, §2

[8] = system: A 549 (Lung) cancer cells; experiment: Colorimetric MTT conversion assay, A 549; type: cell-based; conditions: Homo sapiens, A549, 72 h exposure, 10 μM to 100 μM
Protocol: as §1, §2

| SMILES | IC50 [1] [µM] | IC50 [2] [µM] | IC50 [3] [µM] | solubility [4] [µM] | half-life at 100 μM [6] [min] | Aqueous solubility compared with Quercetin (II) / QC-12 (IV), in words [4] | IC50 [8] [µM] | IC50 [5] [µM] | Cytotoxic potential compared with Quercetin (II), in words [7] |
| --- | --- | --- | --- | --- | --- | --- | --- | --- | --- |
| CC(C)(C)C(=O)OCOc1cc(-c2oc3cc(OCc4ccccc4)cc(O)c3c(=O)c2OCc2ccccc2)ccc1OCc1ccccc1 [Compound No. 1, (2-(Benzyloxy)-5-(3,7-bis(benzyloxy)-5-hydroxy-4-oxo-4H-chromen-2-yl)phenoxy)methyl pivalate] | > 100 | > 100 | > 100 | 1.48 (≈ 1.02 µg/mL) | – | – | – | > 100 | – |
| CC(=O)OCOc1cc(-c2oc3cc(OCc4ccccc4)cc(O)c3c(=O)c2OCc2ccccc2)ccc1OCc1ccccc1 [Compound No. 2, (2-(Benzyloxy)-5-(3,7-bis(benzyloxy)-5-hydroxy-4-oxo-4H-chromen-2-yl)phenoxy)methyl acetate] | > 100 | > 100 | > 100 | 0.591 | – | – | – | > 100 | – |
| CC(C)(C)C(=O)OCOc1cc(-c2oc3cc(O)cc(O)c3c(=O)c2O)ccc1O [Compound No. 7, (2-hydroxy-5-(3,5,7-trihydroxy-4-oxo-4H-chromen-2-yl)phenoxy)methyl pivalate] | 20.9 | > 100 | 83.1 | 30.6 (≈ 12.7 µg/mL) | 6.24 | better solubility than Quercetin (II) | – | > 100 | better cytotoxic potential than Quercetin (II) |
| CC(=O)OCOc1cc(-c2oc3cc(O)cc(O)c3c(=O)c2O)ccc1O [Compound No. 8, (2-hydroxy-5-(3,5,7-trihydroxy-4-oxo-4H-chromen-2-yl)phenoxy)methyl acetate] | 19.4 | > 100 | > 100 | 16.5 | < 3 | better solubility than Quercetin (II) | – | > 100 | better cytotoxic potential than Quercetin (II) |
| O=C(O)CNC(=O)Oc1cc(-c2oc3cc(O)cc(O)c3c(=O)c2O)ccc1O [QC-12 (IV), reference compound] | – | – | – | > 200 | 43.9 | – | – | – | – |

Second part, led by results:

| IC50 [1] [µM] | IC50 [2] [µM] | IC50 [3] [µM] | solubility [4] [µM] | half-life at 100 μM [6] [min] | Aqueous solubility compared with Quercetin (II) / QC-12 (IV), in words [4] | IC50 [8] [µM] | SMILES | IC50 [5] [µM] | Cytotoxic potential compared with Quercetin (II), in words [7] |
| --- | --- | --- | --- | --- | --- | --- | --- | --- | --- |
| > 100 | > 100 | > 100 | < 3.13 | – | – | > 100 | CCCC(=O)OCOc1cc(-c2oc3cc(OCc4ccccc4)cc(O)c3c(=O)c2OCc2ccccc2)ccc1OCc1ccccc1 [Compound No. 13, (2-(Benzyloxy)-5-(3,7-bis(benzyloxy)-5-hydroxy-4-oxo-4H-chromen-2-yl)phenoxy)methyl butyrate] | > 100 | – |
| < 10 | 94.6 | > 100 | 199 (≈ 80.1 µg/mL) | < 3 | solubility comparable to QC-12 (IV) | 61.9 | CCCC(=O)OCOc1cc(-c2oc3cc(O)cc(O)c3c(=O)c2O)ccc1O [Compound No. 14, (2-hydroxy-5-(3,5,7-trihydroxy-4-oxo-4H-chromen-2-yl)phenoxy)methyl butyrate] | > 100 | better cytotoxic potential than Quercetin (II) |
| 35.3 | 88.4 | > 100 | 4.02 (≈ 1.22 µg/mL) | – | – | 83.7 | O=c1c(O)c(-c2ccc(O)c(O)c2)oc2cc(O)cc(O)c12 [Quercetin (II), 2-(3,4-Dihydroxyphenyl)-3,5,7-trihydroxy-4H-1-benzopyran-4-one, reference compound] | 68.7 | – |
